Experimental data as given in ChEMBL document CHEMBL5465560, “Selectivity Literature for EUbOPEN Chemogenomic Library” (2024).
Values belong to the molecule of their own block, whether it stands above or below them.

Key:
[1] = molecular target: T1, Serine/threonine-protein kinase Sgk3 (Homo sapiens) (UniProt Q96BR1); experiment: Selectivity interaction (Kinase panel (Z-LYTE Assay)) EUB0001632a SGK3; settings: at 10 µM
T1 sequence (whole entry): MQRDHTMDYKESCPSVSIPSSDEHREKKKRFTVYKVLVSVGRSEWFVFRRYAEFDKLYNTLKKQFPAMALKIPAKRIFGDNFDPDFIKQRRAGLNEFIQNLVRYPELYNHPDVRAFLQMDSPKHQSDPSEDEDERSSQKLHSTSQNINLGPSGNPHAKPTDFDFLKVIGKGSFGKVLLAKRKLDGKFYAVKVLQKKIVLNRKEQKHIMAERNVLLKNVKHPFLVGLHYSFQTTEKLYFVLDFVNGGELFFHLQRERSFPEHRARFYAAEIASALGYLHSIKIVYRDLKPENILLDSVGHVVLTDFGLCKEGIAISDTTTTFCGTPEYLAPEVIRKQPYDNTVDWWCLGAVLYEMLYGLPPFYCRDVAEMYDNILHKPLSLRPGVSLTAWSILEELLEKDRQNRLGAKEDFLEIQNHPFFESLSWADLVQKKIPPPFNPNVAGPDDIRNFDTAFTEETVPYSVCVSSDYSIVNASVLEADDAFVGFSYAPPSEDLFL

[2] = molecular target: Protein kinase C eta type (Homo sapiens) (UniProt P24723); experiment: Selectivity interaction (Upstate Kinase Profiler service (Millipore)) EUB0000056c PRKCH; settings: at 1 µM
[3] = molecular target: T2, Serine/threonine-protein kinase LATS1 (Homo sapiens) (UniProt O95835); experiment: Selectivity interaction (ActivX KiNativ screen (kinase selectivity in THP-1 cell lysates)) EUB0000639a LATS1; assay type: subcellular; settings: lysate, at 1 µM
T2 sequence (whole entry): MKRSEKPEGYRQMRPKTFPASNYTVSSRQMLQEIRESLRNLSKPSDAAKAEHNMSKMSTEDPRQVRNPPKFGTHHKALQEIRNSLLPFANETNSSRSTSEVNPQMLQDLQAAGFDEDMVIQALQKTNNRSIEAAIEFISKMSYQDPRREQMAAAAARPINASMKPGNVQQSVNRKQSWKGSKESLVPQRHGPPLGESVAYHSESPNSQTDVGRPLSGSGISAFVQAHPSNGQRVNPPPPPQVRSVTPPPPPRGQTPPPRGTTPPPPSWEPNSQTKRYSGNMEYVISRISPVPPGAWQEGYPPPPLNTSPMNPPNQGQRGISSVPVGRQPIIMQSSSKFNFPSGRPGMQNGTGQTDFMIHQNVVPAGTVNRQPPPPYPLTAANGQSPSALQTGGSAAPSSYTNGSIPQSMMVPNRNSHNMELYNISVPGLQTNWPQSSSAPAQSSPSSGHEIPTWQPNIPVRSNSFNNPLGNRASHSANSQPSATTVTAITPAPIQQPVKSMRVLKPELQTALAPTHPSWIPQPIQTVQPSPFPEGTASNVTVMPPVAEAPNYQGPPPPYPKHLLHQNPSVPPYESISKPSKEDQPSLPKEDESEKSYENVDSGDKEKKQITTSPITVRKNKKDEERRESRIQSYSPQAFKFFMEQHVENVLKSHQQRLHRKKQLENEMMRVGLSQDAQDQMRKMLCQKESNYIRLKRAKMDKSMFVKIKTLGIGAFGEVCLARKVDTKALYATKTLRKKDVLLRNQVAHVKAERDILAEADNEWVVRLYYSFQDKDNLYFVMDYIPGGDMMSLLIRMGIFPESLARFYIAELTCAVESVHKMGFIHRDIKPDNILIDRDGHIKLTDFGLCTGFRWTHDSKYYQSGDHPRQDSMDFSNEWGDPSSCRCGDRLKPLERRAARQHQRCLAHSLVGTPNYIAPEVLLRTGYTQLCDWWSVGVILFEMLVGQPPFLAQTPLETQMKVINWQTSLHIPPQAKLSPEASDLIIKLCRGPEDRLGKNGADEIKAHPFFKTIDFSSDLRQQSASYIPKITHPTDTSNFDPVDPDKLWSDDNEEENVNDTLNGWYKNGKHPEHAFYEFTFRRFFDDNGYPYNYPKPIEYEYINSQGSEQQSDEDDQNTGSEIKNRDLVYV

[4] = molecular target: Ribosomal protein S6 kinase alpha-4 (Homo sapiens) (UniProt O75676); experiment: Selectivity interaction (KinaseProfiler screening (Millipore)) EUB0000601a RPS6KA4; settings: at 3 µM
[5] = molecular target: T3, Serine/threonine-protein kinase D1 (Homo sapiens) (UniProt Q15139); experiment: Selectivity interaction (Millipore kinase profiler) EUB0000124b PRKD1; settings: at 10 µM
T3 sequence (whole entry): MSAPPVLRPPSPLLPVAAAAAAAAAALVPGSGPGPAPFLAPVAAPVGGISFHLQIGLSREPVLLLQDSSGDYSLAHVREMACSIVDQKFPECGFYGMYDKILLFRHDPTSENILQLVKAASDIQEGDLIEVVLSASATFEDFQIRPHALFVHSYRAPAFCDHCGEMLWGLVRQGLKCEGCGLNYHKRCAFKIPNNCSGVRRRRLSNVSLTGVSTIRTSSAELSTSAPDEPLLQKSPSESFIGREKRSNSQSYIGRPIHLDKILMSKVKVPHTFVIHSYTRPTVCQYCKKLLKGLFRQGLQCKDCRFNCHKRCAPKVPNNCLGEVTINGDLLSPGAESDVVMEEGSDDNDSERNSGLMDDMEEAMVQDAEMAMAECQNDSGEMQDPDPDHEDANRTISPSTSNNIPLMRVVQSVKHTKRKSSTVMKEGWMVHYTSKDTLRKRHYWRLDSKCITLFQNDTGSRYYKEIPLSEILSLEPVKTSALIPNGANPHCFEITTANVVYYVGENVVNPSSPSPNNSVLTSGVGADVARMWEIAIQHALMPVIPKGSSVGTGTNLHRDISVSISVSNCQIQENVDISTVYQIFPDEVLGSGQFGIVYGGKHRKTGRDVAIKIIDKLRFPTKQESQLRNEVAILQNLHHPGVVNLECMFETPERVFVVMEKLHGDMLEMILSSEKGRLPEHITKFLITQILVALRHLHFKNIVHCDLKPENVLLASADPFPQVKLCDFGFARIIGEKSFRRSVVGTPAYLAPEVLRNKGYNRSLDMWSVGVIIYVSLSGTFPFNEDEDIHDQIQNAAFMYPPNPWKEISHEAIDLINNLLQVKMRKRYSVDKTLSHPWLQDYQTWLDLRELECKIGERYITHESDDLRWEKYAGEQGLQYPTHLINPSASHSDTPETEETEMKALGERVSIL

[6] = molecular target: cAMP-dependent protein kinase catalytic subunit beta (Homo sapiens) (UniProt P22694); experiment: Selectivity interaction (KinomeScan (DiscoverX)) EUB0000618a PRKACB; settings: at 10 µM
[7] = molecular target: Dual specificity tyrosine-phosphorylation-regulated kinase 1A (Homo sapiens, UniProt Q13627); experiment: Selectivity interaction (KinomeScan (DiscoverX)) EUB0001619a DYRK1A; settings: at 1 µM

Chain of Ribosomal protein S6 kinase alpha-4 (Homo sapiens) (O75676 whole entry, looked up): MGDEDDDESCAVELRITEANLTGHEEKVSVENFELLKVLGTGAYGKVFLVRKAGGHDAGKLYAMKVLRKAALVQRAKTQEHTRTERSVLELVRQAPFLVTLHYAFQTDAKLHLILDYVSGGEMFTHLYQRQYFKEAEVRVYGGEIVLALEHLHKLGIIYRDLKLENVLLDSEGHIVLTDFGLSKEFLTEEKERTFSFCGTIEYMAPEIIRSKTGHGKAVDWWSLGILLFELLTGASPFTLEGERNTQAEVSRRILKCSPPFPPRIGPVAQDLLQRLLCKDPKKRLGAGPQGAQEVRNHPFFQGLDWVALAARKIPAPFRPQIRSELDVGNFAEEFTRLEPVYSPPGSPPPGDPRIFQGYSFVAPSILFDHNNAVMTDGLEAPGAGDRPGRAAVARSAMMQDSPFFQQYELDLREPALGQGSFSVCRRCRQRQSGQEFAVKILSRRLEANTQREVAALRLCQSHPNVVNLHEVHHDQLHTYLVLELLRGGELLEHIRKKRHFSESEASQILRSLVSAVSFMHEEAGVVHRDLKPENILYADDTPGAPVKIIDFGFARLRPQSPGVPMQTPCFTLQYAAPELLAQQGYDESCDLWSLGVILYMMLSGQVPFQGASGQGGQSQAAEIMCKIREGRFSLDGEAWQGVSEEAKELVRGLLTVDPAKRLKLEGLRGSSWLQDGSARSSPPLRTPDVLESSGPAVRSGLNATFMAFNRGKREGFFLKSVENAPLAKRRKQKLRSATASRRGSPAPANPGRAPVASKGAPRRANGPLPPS
Chain of Protein kinase C eta type (Homo sapiens) (P24723 whole entry): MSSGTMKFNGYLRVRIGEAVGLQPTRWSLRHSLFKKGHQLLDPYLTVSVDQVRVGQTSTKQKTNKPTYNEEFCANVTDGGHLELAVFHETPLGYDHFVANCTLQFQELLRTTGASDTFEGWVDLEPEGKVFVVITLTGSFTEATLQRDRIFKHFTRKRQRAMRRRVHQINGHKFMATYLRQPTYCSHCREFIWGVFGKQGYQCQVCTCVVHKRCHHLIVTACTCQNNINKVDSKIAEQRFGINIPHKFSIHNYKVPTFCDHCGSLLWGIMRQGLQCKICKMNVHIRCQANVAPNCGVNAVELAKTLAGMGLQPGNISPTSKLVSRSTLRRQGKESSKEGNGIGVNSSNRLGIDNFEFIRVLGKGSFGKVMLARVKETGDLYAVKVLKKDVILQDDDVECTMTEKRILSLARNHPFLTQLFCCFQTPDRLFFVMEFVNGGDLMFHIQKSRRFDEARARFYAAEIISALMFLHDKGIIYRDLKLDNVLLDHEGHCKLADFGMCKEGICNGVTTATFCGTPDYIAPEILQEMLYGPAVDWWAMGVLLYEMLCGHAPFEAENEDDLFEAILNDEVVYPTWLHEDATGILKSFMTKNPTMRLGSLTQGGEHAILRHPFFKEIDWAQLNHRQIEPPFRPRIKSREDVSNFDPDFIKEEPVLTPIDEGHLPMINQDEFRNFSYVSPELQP

% of control [1]: 0.168%
SMILES: Cn1cc(-n2cnc3c(NCc4nc5cc(Cl)c(Cl)cc5[nH]4)nc(N4CCOCC4)nc32)cn1

% of inhibition [2]: 6%
SMILES: Cc1ccc(-c2ccc3c(ccc4sc5c(c43)NC[C@@H](C)NC5=O)n2)cn1

% of inhibition [3]: -107%
SMILES: CC[C@@H]1[C@H](F)C(=O)N[C@@H]1COc1nccc2cc(C(N)=O)c(OC)cc12 [ZIMLOVISERTIB]

% of inhibition [4]: 55%
SMILES: CCc1cc(Nc2nccc(-c3c(-c4ccc(OC)c(C(=O)Nc5c(F)cccc5F)c4)nc4ccccn34)n2)c(OC)cc1N1CCC(N2CCN(S(C)(=O)=O)CC2)CC1

% of control [5]: 111%
SMILES: CC(=O)Nc1cccc(-n2c(=O)n(C3CC3)c(=O)c3c(Nc4ccc(I)cc4F)n(C)c(=O)c(C)c32)c1

SMILES: O[C@H]1CC[C@H](Nc2ncc3nc(Nc4c(F)cc(F)cc4F)n([C@H]4CCOC4)c3n2)CC1
% of control [6]: 100%

SMILES: N#Cc1cccc(-c2c[nH]c3ncnc(N4CCOCC4)c23)c1
% of control [7]: 78%
